Measured values from patent publication US20210007356A1, “IMIDE DERIVATIVE AND FUNGICIDE CONTAINING SAID DERIVATIVE AS ACTIVE INGREDIENT” (HOKKO CHEMICAL INDUSTRY CO., LTD., priority 2018, published 2021).
Like-named read-outs stand apart in the source and are kept apart here.

Legend:
[1] = test system: barley powdery mildew fungus (Erysiphe graminis); assay: Test Example 2: control effect against barley powdery mildew by foliage application; format: in vivo; details: wettable powder diluted to 100 ppm, 10 mL per pot foliage spray on barley; inoculated day after; 7 days after inoculation
[2] = test system: rice blast fungus (Pyricularia grisea); format: in vivo; details: flowable 5,000 ppm, 50 mL irrigation of nursery box, paddy rice; inoculated after 3 weeks; 7 days after inoculation
[3] = test system: rice blast fungus (Pyricularia grisea); format: in vivo; details: 5 g of granule on nursery box, paddy rice; inoculated after 3 weeks; 7 days after inoculation
[4] = test system: rice blast fungus (Pyricularia grisea); format: in vivo; details: flowable 1,000 ppm, 1 mL dripped in paddy water, inoculated after 1 week, 7 days after inoculation
[5] = test system: rice sheath blight fungus (Thanatephorus cucumeris); assay: Test Example 8: control effect against rice sheath blight by box treatment (granule); details: 5 g of granule on nursery box, paddy rice; inoculated after 3 weeks; 7 days after inoculation
[6] = test system: rice sheath blight fungus (Thanatephorus cucumeris); assay: Test Example 6: control effect against rice sheath blight by box treatment (flowable formulation); details: flowable 5,000 ppm, 50 mL irrigation of nursery box, paddy rice; inoculated after 3 weeks; 7 days after inoculation
[7] = test system: rice sheath blight fungus (Thanatephorus cucumeris); assay: Test Example 10: control effect against rice sheath blight by water surface application (flowable formulation); details: flowable 1,000 ppm, 1 mL dripped in paddy water, inoculated after 1 week, 7 days after inoculation
Description: Control value (%)=[1−(lesion height in sprayed plot/lesion height in unsprayed plot)]×100 (d)
By dripping treatment in paddy water, 1 mL of a diluted solution (1,000 ppm) of a flowable prepared according to Formulation Example-3 was applied to a 5-leaf-stage paddy rice (variety: Asahi) seedling (5 seedlings/stub, one stub/pot) grown in a pot ( 1/10000 are in size) filled with paddy soil (flooded) within a greenhouse. After growing for 1 week within a greenhouse, a culture of rice sheath blight fungus (Thanatephorus cucumeris) grown in advance on a rice straw medium was inoculated into the root of the formulation-treated paddy rice, and disease development was promoted in an artificial weather chamber at 26° C. (relative humidity=100%). Seven days after the inoculation, the rice sheath blight lesion height (height from the root) was examined, and the control value (%) was calculated according to formula (d). […] This test was performed with three replications, each consisting of one plot and one pot, per one formulation plot, and its average evaluation value of control effect was determined.

Structure (SMILES)	evaluation value of control effect (from control value, lesion area percentage) [1]	evaluation value of control effect (from control value, number of lesions) [2]	evaluation value of control effect (from control value, number of lesions) [3]	evaluation value of control effect (from control value, number of lesions) [4]	evaluation value of control effect (from control value, lesion height) [5]	evaluation value of control effect (from control value, lesion height) [6]	evaluation value of control effect (from control value, lesion height) [7]
Cc1nc(C(F)F)c(C(=O)N(C(=O)c2cc(Cl)c(Cl)s2)c2ccccc2C(C)CC(C)C)s1 (stereo not shown) [7-274]	4	5	5	5	5	5	5
Cc1nc(C(F)F)c(C(=O)N(C(=O)c2onc(Cl)c2Cl)c2ccccc2C(C)CC(C)C)s1 (stereo not shown) [7-277]	5	5	5	5	5	5	5
Cc1ncc(C(=O)N(C(=O)c2cc(Cl)no2)c2ccccc2C(C)CC(C)C)s1 (stereo not shown) [7-278]	4	5	5	5	5	5	5
Cc1nc(C(F)(F)F)c(C(=O)N(C(=O)c2snnc2C)c2c(Br)cc(OC(F)(F)F)cc2Br)s1 [7-280]	4	5	5	5	5	5	5
Cc1nc(C(F)(F)F)c(C(=O)N(C(=O)c2snnc2C(F)F)c2c(Br)cc(OC(F)(F)F)cc2Br)s1 [7-281]	4	5	5	5	5	5	5
Cc1nc(C(F)(F)F)c(C(=O)N(C(=O)c2scnc2C(F)F)c2c(Br)cc(OC(F)(F)F)cc2Br)s1 [7-283]	4	5	5	5	5	5	5
Cc1nc(C(F)F)c(C(=O)N(C(=O)c2cc(F)nc(F)c2)c2ccccc2C(C)CC(C)C)s1 (stereo not shown) [7-288]	4	5	5	5	5	5	5
Cc1nnsc1C(=O)N(C(=O)c1cccnc1C(F)F)c1ccccc1C(C)CC(C)C (stereo not shown) [13-10]	5	5	5	5	5	5	5
CC(C)CC(C)c1ccccc1N(C(=O)c1cccnc1C(F)F)C(=O)c1cccc2nnsc12 (stereo not shown) [13-16]	4	5	5	5	5	5	5
CC(C)CC(C)c1ccccc1N(C(=O)c1cccnc1C(F)F)C(=O)c1onc(Cl)c1Cl (stereo not shown) [13-49]	5	5	5	5	5	5	5
CC(C)CC(C)c1ccccc1N(C(=O)c1cccnc1Cl)C(=O)c1snc(Cl)c1Cl (stereo not shown) [13-53]	4	5	5	5	5	5	5
CC(C)CC(C)c1sccc1N(C(=O)c1cccnc1C(F)F)C(=O)c1snc(Cl)c1Cl (stereo not shown) [18-2]	5	5	5	5	5	5	5
Cc1nnsc1C(=O)N(C(=O)c1cccnc1C(F)F)c1ccsc1C(C)CC(C)C (stereo not shown) [18-8]	5	5	5	5	5	5	5
CC1OC(C)(C)c2cccc(N(C(=O)c3cn(C)nc3C(F)F)C(=O)c3snc(Cl)c3Cl)c21 (stereo not shown) [25-10]	4	5	5	5	5	5	5
CC1OC(C)(C)c2cccc(N(C(=O)c3cn(C)nc3C(F)F)C(=O)c3cccc4nnsc34)c21 (stereo not shown) [25-74]	4	5	5	5	5	5	5
CC1OC(C)(C)c2cccc(N(C(=O)c3cn(C)nc3C(F)F)C(=O)c3onc(Cl)c3Cl)c21 (stereo not shown) [25-114]	4	5	5	5	5	5	5
Cc1nc(C(F)F)c(C(=O)N(C(=O)c2snc(Cl)c2Cl)c2cccc3c2C(C)OC3(C)C)s1 (stereo not shown) [26-14]	4	5	5	5	5	5	5
Cc1nc(C(F)F)c(C(=O)N(C(=O)c2snnc2C(F)F)c2cccc3c2C(C)CC3(C)C)s1 (stereo not shown) [26-57]	4	5	5	5	5	5	5
Cc1nc(C(F)F)c(C(=O)N(C(=O)c2cccc3nnsc23)c2cccc3c2C(C)OC3(C)C)s1 (stereo not shown) [26-62]	4	5	5	5	5	5	5
